Results: patent US20060084652A1, “Alkylidene-tetrahydronaphthalene derivatives, process for their production and their use as anti-inflammatory agents” (priority 2004, published 2006)

Experiments:
[1] = target: T1, glucocorticoid receptor (GR) (Homo sapiens, UniProt P04150); test: Binding to the glucocorticoid receptor, cytosol preparations of Sf9 cells, [3H]-dexamethasone as reference; details: recombinant GR
T1 construct: made in house; host or cells: Sf9 cells infected with recombinant baculovirus (cytosol preparation)
T1 sequence (P04150 1-777): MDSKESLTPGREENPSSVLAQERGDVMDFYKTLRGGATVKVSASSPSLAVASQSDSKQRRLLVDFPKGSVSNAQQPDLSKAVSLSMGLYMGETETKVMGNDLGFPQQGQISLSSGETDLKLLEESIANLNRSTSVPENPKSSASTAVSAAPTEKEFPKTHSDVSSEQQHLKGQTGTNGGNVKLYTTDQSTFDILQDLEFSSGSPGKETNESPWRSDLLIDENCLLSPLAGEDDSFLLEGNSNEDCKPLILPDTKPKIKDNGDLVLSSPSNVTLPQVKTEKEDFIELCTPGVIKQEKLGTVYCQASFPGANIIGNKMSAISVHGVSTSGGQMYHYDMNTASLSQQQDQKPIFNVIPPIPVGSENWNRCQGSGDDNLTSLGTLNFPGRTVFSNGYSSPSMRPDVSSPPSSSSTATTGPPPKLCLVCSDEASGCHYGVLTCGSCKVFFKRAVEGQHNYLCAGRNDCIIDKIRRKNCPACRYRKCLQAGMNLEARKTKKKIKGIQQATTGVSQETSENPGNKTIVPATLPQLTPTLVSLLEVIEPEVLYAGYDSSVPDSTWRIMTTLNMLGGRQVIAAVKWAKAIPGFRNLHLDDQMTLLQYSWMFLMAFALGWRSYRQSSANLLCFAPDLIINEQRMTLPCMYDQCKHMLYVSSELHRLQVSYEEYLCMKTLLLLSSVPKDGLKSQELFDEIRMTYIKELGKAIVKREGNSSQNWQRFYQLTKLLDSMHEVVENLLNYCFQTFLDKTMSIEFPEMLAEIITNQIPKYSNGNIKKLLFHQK
Excerpt: The binding of substances to the glucocorticoid receptor (GR) and other steroid-hormone receptors (mineral corticoid receptor (MR), progesterone receptor (PR) and androgen receptor (AR)) is examined with the aid of recombinantly produced receptors. Cytosol preparations of Sf9 cells, which had been infected with recombinant baculoviruses that code for the GR, are used for the binding studies. In comparison to the reference substance [^3H]-dexamethasone, the substances show a high affinity to the GR. IC50(GR)=20 nM and IC50(PR)>1 μM were measured for the compound from Example 1, and IC50(GR)=30 nM and IC50(PR)>1 μM were measured for the compound from Example 2.

[2] = tested on: secretion of cytokine IL-8 in monocyte cell line THP-1; test: Inhibition of LPS-triggered IL-8 secretion in THP-1 cells (ELISA); type: cell-based, human
Protocol: The concentration of the cytokines was determined in the supernatant by means of commercially available ELISA kits.

Molecule | IC50 [1] [µM] | efficiency relative to [3H]-dexamethasone as a standard ([2]; IL-8 inhibition, THP-1) [%] | IC50 ([2]; THP-1, supernatant ELISA, read-out: IC50(IL8)) [µM]
(cis, Z)-5-{[4-Ethylidene-6-fluoro-2,5-dihydroxy-2-(trifluoromethyl)-1,2,3,4-tetrahydronaphthalen-1-yl]amino}-quinolin-2(1H)-one [Example 2] | 0.03 |  | 
C/C=C1/C[C@@](O)(C(F)(F)F)[C@H](Nc2cccc3nc(C)ccc23)c2ccc(F)cc21 (relative stereo) [Example 1, (cis, Z)-4-Ethylidene-6-fluoro-1-[(2-methylquinolin-5-yl)amino]-2-(trifluoromethyl)-1,2,3,4-tetrahydronaphthalen-2-ol] | 0.02 | 90 | 0.0064
